Assay results: US10590129B2 (Incozen Therapeutics Pvt. Ltd., priority 2010, dated 2020)

Tests used:
MKN-45 cells = experiment: Inhibition of MKN-45 proliferation (MTT); assay type: cell-based, human; conditions: for GI50 / inhibition at 0.1 µM / inhibition at 1 µM: Homo sapiens, MKN-45, MKN-45 proliferation
How it was run: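 Viability measured by MTT dye reduction on day 5 after compound addition on day 2 to MKN-45 gastric adenocarcinoma cells (high Met expression) seeded on day 1 in complete medium.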

c-Met [1] = biological target: T1, c-Met (Homo sapiens, UniProt P08581); experiment: Inhibition of c-Met kinase phosphorylation in MKN-45 cells (cell based ELISA); parameters: endogenous in cells; host or cells: MKN-45; conditions: 1 h
Experimental: Inhibition of c-Met Kinase Phosphorylation in MKN-45 Cells:
MKN45 cells are a prototype of “c-Met addicted” cells having constitutively activated c-Met kinase similar to that observed in sub-sects of gastric or hepatocellular cancer patients with dysregulated c-Met kinase activity. Inhibition of Met phosphorylation was determined using a cell based ELISA assay according to the following schedule:
Day 1: MKN-45 cells were plated in 96-well plates in complete growth medium.
Day 2: Inhibitors at the desired concentration were added to the plates and incubated for 1 h and lysed subsequently.
Lysates were transferred to NUNC Maxisorp plates coated with anti-cMet receptor antibody. Phopho-tyrosine mAb and HRP-lined anti-mouse IgG were used as primary and secondary antibodies respectively. Optical density was measured on a microplate reader (BMG Labtech., Germany) at […]. Inhibition of c-Met phosphorylation in this cell line indicates a therapeutic potential for test compounds in patients diagnosed with cancers caused by aberrant c-Met kinase signalling.

Met kinase = Met kinase (Homo sapiens, UniProt P08581); experiment: MET kinase assay (colorimetric determination of c-Met kinase activity, HTScan Met Kinase Assay Kit); assay type: biochemical; parameters: purchased Cell Signalling Technology, Beverly, Mass; conditions: for IC50: c-Met kinase
Excerpt: 1. MET Kinase Assay Protocol:
Colorimetric Determination of c-Met Kinase Activity
The receptor tyrosine kinase c-Met is a heterodimeric transmembrane glycoprotein involved in several cellular processes that aid in tumor progression. Phosphorylation of the tyrosine residues in the c-Met kinase domain is critical for its activity and the resulting down-stream effects. The colorimetric assay allows detection of the phosphorylated form of a biotinylated peptide upon activation of human recombinant Met kinase.
MET Kinase Assay Protocol:
c-Met Kinase activity shall be determined using an HTScan® Met Kinase Assay Kit (Cell Signalling Technology, Beverly, Mass.) with modifications. All incubations are carried out at room temperature. Briefly, 12.5 μl of a 4× reaction cocktail (DTT/Kinase buffer containing appropriate quantity of human Met kinase) is added to each well of a 96-well plate containing 12.5 μl pre-diluted compound of interest and incubated for 5 minutes. After the initial incubation, 25 μl/well of 2×ATP/biotinylated peptide is added and incubated for an additional 30 minutes. The reaction is terminated by the addition of 50 μl/well stop buffer (50 mM EDTA, pH 8.0). The reaction mixture (25 μl/well) is then transferred to a streptavidin coated plate (Perkin Elmer, Cat#4009-0010) containing 75 μl dH2O and incubated for 60 minutes. The plate is washed with 200 μl/well wash buffer (1×PBS, 0.05% Tween-20). After washing, 100 μl/well phospho-tyrosine mAb (1:1000 in wash buffer containing 1% BSA) is added and incubated for 60 minutes. After another round of washes, 100 μl/well europium labelled anti-mouse IgG (1:500 in wash buffer containing 1% BSA) is added and incubated for an additional 30 minutes. Following additional washes, 100 μl/well Delfia® enhancement solution (Perkin Elmer, Cat#1244-105) is added and incubated for 45 minutes. Florescence is measured on a microplate reader (BMG Labtech., Germany) at 340 nm (excitation) and 615 nm (emission) for calculating % inhibition. Data generated can be analyzed further using Graphpad Prism (Graphpad software, San Diego Calif.) for determination of IC50.

c-Met [2] = biological target: T1, c-Met; experiment: Inhibition of c-Met kinase phosphorylation in NCI-H441 cells (cell based ELISA); parameters: endogenous in cells; host or cells: NCI-H441; conditions: 1 h
Experimental: Inhibition of c-Met Kinase Phosphorylation in NCI—H441 Cells:
Inhibition of Met phosphorylation was determined using a cell based ELISA assay according to the following schedule:
Day 1: NCI—H441 cells were plated in 96-well plates in complete growth medium.
Day 2: Inhibitors at the desired concentration were added to the plates, incubated for 1 h and lysed subsequently. Lysates were transferred to NUNC Maxisorp plates coated with anti-cMet receptor antibody. Phopho-tyrosine mAb and HRP-lined anti-mouse IgG were used as primary and secondary antibodies respectively. Optical density was measured on a microplate reader (BMG Labtech., Germany) at […].

T1 sequence (P08581 25-1390): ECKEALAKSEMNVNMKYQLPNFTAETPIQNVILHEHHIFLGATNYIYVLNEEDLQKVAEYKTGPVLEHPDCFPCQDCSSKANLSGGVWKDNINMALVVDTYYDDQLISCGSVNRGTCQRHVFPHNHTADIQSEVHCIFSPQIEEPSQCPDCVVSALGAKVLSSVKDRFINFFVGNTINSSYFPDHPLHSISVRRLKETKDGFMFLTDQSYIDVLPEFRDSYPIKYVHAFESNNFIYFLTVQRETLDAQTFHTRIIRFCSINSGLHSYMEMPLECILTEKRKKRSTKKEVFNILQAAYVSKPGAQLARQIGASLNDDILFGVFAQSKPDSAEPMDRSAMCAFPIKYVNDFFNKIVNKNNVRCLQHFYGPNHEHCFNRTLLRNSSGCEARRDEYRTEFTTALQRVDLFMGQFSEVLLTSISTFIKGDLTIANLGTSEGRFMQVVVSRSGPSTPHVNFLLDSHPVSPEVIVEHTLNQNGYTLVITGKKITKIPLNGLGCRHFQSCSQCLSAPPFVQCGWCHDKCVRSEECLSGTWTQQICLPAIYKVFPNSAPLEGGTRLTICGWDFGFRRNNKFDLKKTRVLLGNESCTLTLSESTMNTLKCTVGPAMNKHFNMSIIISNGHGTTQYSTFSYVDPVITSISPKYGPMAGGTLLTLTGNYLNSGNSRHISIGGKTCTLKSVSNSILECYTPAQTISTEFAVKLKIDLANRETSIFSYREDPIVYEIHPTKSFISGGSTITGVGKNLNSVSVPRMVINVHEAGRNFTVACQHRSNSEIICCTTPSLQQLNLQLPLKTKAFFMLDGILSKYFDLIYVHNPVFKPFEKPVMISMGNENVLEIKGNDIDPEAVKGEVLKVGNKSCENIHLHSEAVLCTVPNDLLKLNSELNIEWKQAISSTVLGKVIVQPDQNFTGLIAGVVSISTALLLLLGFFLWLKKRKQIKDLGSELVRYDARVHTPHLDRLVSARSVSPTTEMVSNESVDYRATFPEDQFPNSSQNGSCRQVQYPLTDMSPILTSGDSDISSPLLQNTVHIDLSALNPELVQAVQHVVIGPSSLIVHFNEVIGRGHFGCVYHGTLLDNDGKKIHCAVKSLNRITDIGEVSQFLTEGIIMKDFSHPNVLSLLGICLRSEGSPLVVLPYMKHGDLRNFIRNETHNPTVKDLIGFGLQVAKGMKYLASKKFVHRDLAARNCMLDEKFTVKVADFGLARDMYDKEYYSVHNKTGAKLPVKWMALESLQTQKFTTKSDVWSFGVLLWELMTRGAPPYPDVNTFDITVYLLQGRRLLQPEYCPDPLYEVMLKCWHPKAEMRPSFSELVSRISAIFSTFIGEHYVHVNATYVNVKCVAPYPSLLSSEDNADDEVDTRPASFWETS
Met kinase, sequence (P08581 25-1390): as above

Row | GI50 (MKN-45 cells) [nM] | IC50 (c-Met [1]) [nM] | melting point [°C] | inhibition at 1 µM (Met kinase) [%] | IC50 (Met kinase) [nM] | IC50 (c-Met [2]) [nM] | Structure (SMILES) | inhibition at 0.1 µM (MKN-45 cells; 0.1 μM) [%] | % inhibition @ 1 uM (MKN-45 cells; MKN-45 proliferation, 1 μM) | inhibition at 1 µM (MKN-45 cells; 1 μM) [%] | Inhibition (% Inhibition of MKN-45 proliferation) (MKN-45 cells; MKN-45 proliferation, 0.1 μM)
1 | ≤ 50 | 50 to 150 | – | – | – | – | CCNC(=O)c1ccc(-c2ccc3nnn(Cc4ccc5ncccc5c4)c3n2)cc1F [Ex43] | – | – | – | –
2 | > 1000 | – | 133 to 135 | 75 to 100 | 50 to 100 | – | COc1cccc(-c2ccc3nnn(Cc4ccc5ncccc5c4)c3n2)c1 [Ex 2, 6-((5-(3-Methoxyphenyl)-3H-[1,2,3]triazolo[4,5-b]pyridin-3-yl)methyl)quinoline] | – | – | – | –
3 | 150 to 500 | – | 187 to 189 | 75 to 100 | 50 to 100 | – | OCc1ccc(-c2ccc3nnn(Cc4ccc5ncccc5c4)c3n2)cc1 [Ex 6, (4-(3-(quinolin-6-ylmethyl)-3H-[1,2,3]triazolo[4,5-b]pyridin-5-yl)phenyl)methanol] | – | – | – | –
4 | 50 to 150 | 50 to 150 | 220 to 222 | 75 to 100 | 50 to 100 | – | CNC(=O)c1ccc(-c2ccc3nnn(Cc4ccc5ncccc5c4)c3n2)cc1 [Ex 9, N-Methyl-4-(3-(quinolin-6-ylmethyl)-3H-[1,2,3]triazolo[4,5-b]pyridin-5-yl)benzamide] | – | – | – | –
5 | – | – | 254 to 257 | 75 to 100 | 50 to 100 | – | O=C(O)c1ccc(-c2ccc3nnn(Cc4ccc5ncccc5c4)c3n2)cc1F [Ex 13, 2-Fluoro-4-(3-(quinolin-6-ylmethyl)-3H-[1,2,3]triazolo[4,5-b]pyridin-5-yl)benzoic acid] | – | – | – | –
6 | 50 to 150 | 50 to 150 | 212 to 214 | 75 to 100 | 100 to 250 | 10 to 50 | CNC(=O)c1ccc(-c2ccc3nnn(Cc4ccc5ncccc5c4)c3n2)cc1F [Ex 14, 2-Fluoro-N-methyl-4-(3-(quinolin-6-ylmethyl)-3H-[1,2,3]triazolo[4,5-b]pyridin-5-yl)benzamide] | – | – | – | –
7 | ≤ 50 | ≤ 50 | 202 to 204 | 75 to 100 | 50 to 100 | – | OCc1ccc(-c2ccc3nnn(Cc4ccc5ncccc5c4)c3n2)cc1F [Ex 16, (2-Fluoro-4-(3-(quinolin-6-ylmethyl)-3H-[1,2,3]triazolo[4,5-b]pyridin-5-yl)phenyl)methanol] | – | – | – | –
8 | 150 to 500 | – | 229 to 231 | 50 to 75 | 250 to 1000 | – | NC(=O)c1ccc(-c2ccc3nnn(Cc4ccc5ncccc5c4)c3n2)cc1 [Ex 21, 4-(3-(quinolin-6-ylmethyl)-3H-[1,2,3]triazolo[4,5-b]pyridin-5-yl)benzamide] | – | – | – | –
9 | ≤ 50 | 50 to 150 | – | – | – | – | O=C(NC1CC1)c1ccc(-c2ccc3nnn(Cc4ccc5ncccc5c4)c3n2)cc1F [Ex 46, N-Cyclopropyl-2-fluoro-4-(3-(quinolin-6-ylmethyl)-3H-[1,2,3]triazolo[4,5-b]pyridin-5-yl)benzamide] | – | – | – | –
10 | ≤ 50 | ≤ 50 | – | 75 to 100 | ≤ 50 | ≤ 10 | NC(=O)c1ccc(-c2ccc3nnn(Cc4cc5cccnc5cc4F)c3n2)cc1F [Ex 137, 2-Fluoro-4-(3-((7-fluoroquinolin-6-yl)methyl)-3H-[1,2,3]triazolo[4,5-b]pyridin-5-yl)benzamide] | 75 to 100 | B (B = ≥50-<75%) | – | –
11 | – | – | – | – | – | ≤ 10 | Cl.NC(=O)c1c(F)cc(-c2ccc3nnn(Cc4ccc5ncccc5c4)c3n2)cc1F [Ex 139, 2,6-Difluoro-4-(3-(quinolin-6-ylmethyl)-3H-[1,2,3]triazolo[4,5-b]pyridin-5-yl)benzamide hydrochloride] | – | – | < 25 | B (B = ≥50-<75%)
12 | 50 to 150 | 50 to 150 | 188 to 191 | – | – | – | CC(c1ccc2ncccc2c1)n1nnc2ccc(-c3cnn(CCO)c3)nc21 (centres unmarked) [Ex 164, 2-(4-(3-(1-(Quinolin-6-yl)ethyl)-3H-[1,2,3]triazolo[4,5-b]pyridin-5-yl)-1H-pyrazol-1-yl)ethanol] | – | – | – | –
13 | – | – | 153 to 156 | – | – | – | Cc1csc(-c2ccc3nnn(Cc4ccc5ncccc5c4)c3n2)c1 [Ex 193, 6-((5-(4-Methylthiophen-2-yl)-3H-[1,2,3]triazolo[4,5-b]pyridin-3-yl)methyl)quinoline] | < 25 | – | 50 to 75 | –
14 | – | – | 154 to 156 | – | – | – | Cc1ccc(-c2ccc3nnn(Cc4ccc5ncccc5c4)c3n2)s1 [Ex 194, 6-((5-(5-Methylthiophen-2-yl)-3H-[1,2,3]triazolo[4,5-b]pyridin-3-yl)methyl)quinoline] | < 25 | – | 50 to 75 | –
15 | – | – | 183 to 185 | – | – | – | c1cnc2ccc(Cn3nnc4ccc(-c5ccc(N6CCOCC6)nc5)nc43)cc2c1 [Ex 195, 4-(5-(3-(Quinolin-6-ylmethyl)-3H-[1,2,3]triazolo[4,5-b]pyridin-5-yl)pyridin-2-yl)morpholine] | 25 to 50 | – | 50 to 75 | –
16 | – | – | 133 to 135 | – | – | – | c1cnc2ccc(Cn3nnc4ccc(-c5ccc(N6CCCCC6)nc5)nc43)cc2c1 [Ex 196, 6-((5-(6-(Piperidin-1-yl)pyridin-3-yl)-3H-[1,2,3]triazolo[4,5-b]pyridin-3-yl)methyl)quinoline] | < 25 | – | < 25 | –
17 | – | – | 132 to 134 | – | – | – | CCn1cc(-c2ccc3nnn(Cc4ccc5ncccc5c4)c3n2)cn1 [Ex 197, 6-((5-(1-Ethyl-1H-pyrazol-4-yl)-3H-[1,2,3]triazolo[4,5-b]pyridin-3-yl)methyl)quinoline] | 25 to 50 | – | – | –
18 | – | – | 126 to 128 | – | – | – | CC(C)n1cc(-c2ccc3nnn(Cc4ccc5ncccc5c4)c3n2)cn1 [Ex 198, 6-((5-(1-Isopropyl-1H-pyrazol-4-yl)-3H-[1,2,3]triazolo[4,5-b]pyridin-3-yl)methyl)quinoline] | < 25 | – | – | –
19 | – | – | 160 to 163 | – | – | – | CC(C)Cn1cc(-c2ccc3nnn(Cc4ccc5ncccc5c4)c3n2)cn1 [Ex 199, 6-((5-(1-Isobutyl-1H-pyrazol-4-yl)-3H-[1,2,3]triazolo[4,5-b]pyridin-3-yl)methyl)quinoline] | < 25 | – | – | –
20 | ≤ 50 | – | – | 75 to 100 | 50 to 100 | – | C[C@@H](c1ccc2ncccc2c1)n1nnc2ccc(-c3ccc(C(N)=O)c(Cl)c3)nc21 [Ex 221, (−)-2-chloro-4-(3-(1-(quinolin-6-yl)ethyl)-3H-[1,2,3]triazolo[4,5-b]pyridin-5-yl) benzamide] | 50 to 75 | – | – | –
21 | – | – | – | 50 to 75 | 250 to 1000 | – | C[C@H](c1ccc2ncccc2c1)n1nnc2ccc(-c3ccc(C(N)=O)c(Cl)c3)nc21 [Ex 222, (+)-2-chloro-4-(3-(1-(quinolin-6-yl)ethyl)-3H-[1,2,3]triazolo[4,5-b]pyridin-5-yl) benzamide] | 25 to 50 | – | – | –

Row | Structure (SMILES) | GI50 (MKN-45 cells) [nM] | IC50 (c-Met [1]) [nM] | melting point [°C] | inhibition at 1 µM (Met kinase) [%] | IC50 (Met kinase) [nM] | IC50 (c-Met [2]) [nM] | inhibition at 0.1 µM (MKN-45 cells; 0.1 μM) [%] | % inhibition @ 1 uM (MKN-45 cells; MKN-45 proliferation, 1 μM) | inhibition at 1 µM (MKN-45 cells; 1 μM) [%] | Inhibition (% Inhibition of MKN-45 proliferation) (MKN-45 cells; MKN-45 proliferation, 0.1 μM)
22 | O=C(O)c1ccc(-c2ccc3nnn(Cc4ccc5ncccc5c4)c3n2)cc1 [Ex 8, 4-(3-(quinolin-6-ylmethyl)-3H-[1,2,3]triazolo[4,5-b]pyridin-5-yl)benzoic acid] | > 1000 | – | 245 to 247 | 75 to 100 | 50 to 100 | – | – | – | – | –
